Results taken from patent EP1437117A1, “Use of Sinapic acid and/or its derivatives” (Cognis France S.A., priority 2002, dated 2004).

Assays:
[1] = system: Adenosindinukleotide (ADN) der Mitochondrien; experiment: Protection of mitochondrial genome against oxidative stress; type: cell-based; conditions: damage caused by oxidative stress
Description: Sie vermindern die Schädigung des mitochondrialen Genoms, die durch oxidativen Stress bewirkt wird und führen dadurch zu einer Verzögerung der Alterung von Mitochondrien und zu einer Verbesserung des Energiepotentials der Zellen. Somit können Sinapinsäure und ihre Derivate über die Verbesserung der mitochondrialen Funktion und Energiebilanz zum Schutz der Haut gegen Alterung und Faltenbildung, zur Steigerung effektiver Reparaturmechanismen durch Alterung und Sonneneinstrahlung geschädigter Haut und zur verbesserten Wundheilung der Haut entscheidend beitragen.

zellulärer DNA = experiment: UV-induced thymine dimer formation in cellular DNA; type: cell-based; conditions: induced by UV radiation; topical application
Description: Es konnte festgestellt werden, dass durch die topische Anwendung von Sinapinsäure und ihren Derivaten insbesondere die Bildung von Thymin-Dimeren in zellulärer DNA, die durch UV-Strahlung induziert wird, vermindert wird. Dadurch kann die Anzahl der Mutationen gesenkt und eine Stärkung des dermalen Immunsystems bewirkt werden. Ein weiterer Gegenstand der Erfindung ist daher die Verwendung von Sinapinsäure und/oder Sinapinsäurederivaten zur Herstellung von kosmetischen und/oder dermopharmazeutischen Zubereitungen zum Schutz vor Thymin-Dimerbildung nach Einfluß von UV-Strahlung in Hautzellen und zur Verbesserung des DNA-Reparaturmechanismus in Hautzellen.

dermaler Fibroblasten = experiment: Collagen synthesis of dermal fibroblasts; type: cell-based
Description: Die menschliche Haut enthält vorwiegend zwei Typen von Collagen: Collagen Typ I und Collagen Typ III, synthetisiert durch dermale Fibroblasten. Beide Collagentypen stellen wesentliche Strukturkomponenten der extrazellulären Matrix des Bindegewebes dar und tragen in hohem Maße zur Struktur der gesamten Haut bei. Ein wichtiges Kennzeichen alternder Haut ist die Abnahme des Collagengehaltes in der Dermis und eine damit verbundene Abnahme der Elastizität, die zusätzlich durch eine Verschlechterung der Fibroblastenfunktion durch nicht enzymatische Glycosylierung (Glycation) und oxidativen Abbau bewirkt wird. Es wurde nun festgestellt, dass Sinapinsäure und ihre Derivate die Collagensynthese dermaler Fibroblasten stimulieren und auf diese Weise die chronologische und die UV-Strahlungsinduzierte Hautalterung verzögert werden kann. Die Verwendung von Sinapinsäure und/oder Sinapinsäurederivaten zur Herstellung kosmetischer und/oder dermopharmazeutischer Zubereitungen zur Stimulation der Collagensynthese in dermalen Fibroblasten ist daher ein weiterer Gegenstand der Erfindung.

[2] = system: Neuropeptiden wie beispielsweise Substanz P oder CGRP; experiment: Release of neuropeptides; type: cell-based
Description: Die Haut ist ein Gewebe, das mit einer Vielzahl von Nervenfasern durchzogen ist, deren Zellkörper in den dorsalen Ganglien (dorsal root ganglia - DRG) zusammenführen. Neurone des Typs Aδ und C erreichen mit ihren Zellen die Dermis und auch die Epidermis. Typ C Neurone sind für die Detektion von noziceptiven Stimuli verantwortlich. Keratinocyten und Nervenfasern können eine Vielzahl unterschiedlicher Cytokine produzieren, die unter dem Einfluß externer Stimuli ausgeschieden werden und die sensorischen Enden der Nervenfasern stimulieren. Diese setzen dann wiederum Peptide frei, die die metabolische Aktivität der Keratinocyten über Messenger-Moleküle beeinflussen. Auf diese Weise kommunizieren sensorische Nerven und Keratinocyten kontinuierlich miteinander. Eine Disregulation dieses physiologischen Gleichgewichts erklärt viele pathologische Erscheinungen von empfindlicher Haut oder beispielsweise Psoriasis. Es konnte nun festgestellt werden, dass Sinapinsäure und ihre Derivate insbesondere empfindliche Haut dadurch beruhigen, dass sie die Freisetzung von Neuropeptiden wie beispielsweise Substanz P oder CGRP herabsetzen.

[3] = type: physicochemical
Description: Vorzugsweise wird jedoch die reine, nicht derivatisierte Sinapinsäure und deren Salze eingesetzt. […] Die entstehenden Abbauprodukte bilden gefärbte übelriechende Substanzen, die auch zu Hautreizungen führen können. Es ist daher ein weiterer Gegenstand der Erfindung Sinapinsäure und/oder ihre Derivate in verkapselter, komplexierter oder adsorbierter Form in den Zubereitungen einzusetzen. Dabei bietet sich insbesondere die Verkapselung in Liposomen oder einer hydrophoben Matrix, die Komplexierung in Cyclodextrinen und die Adsorption an hydrophobe Träger an. Bevorzugt wird Sinapinsäure und/oder ihre Derivate in Mikrokapseln eingearbeitet.

[4] = in Ethanol; cited from earlier work
[5] = system: Carrageenan-induzierten Rattenpfotenödem-Modell; conditions: after injection into the paw; Chawla AS et al 1993; cited from earlier work

In the case of `COc1cc(/C=C/C(=O)O)cc(OC)c1O` [Sinapinsäure, 4-Hydroxy-3,5-Dimethoxy-Zimtsäure], the “Wirkung auf Adenosindinukleotide (ADN) der Mitochondrien” value [1] is reported as “schützende Wirkung”, the “Bildung von Thymin-Dimeren in zellulärer DNA” value (zellulärer DNA) is reported as “vermindert” and the “Collagensynthese dermaler Fibroblasten” value (dermaler Fibroblasten) is reported as “stimulieren”. The “Freisetzung von Neuropeptiden wie beispielsweise Substanz P oder CGRP” value [2] was “herabsetzen”, the “chemische Stabilität” value [3] was “leicht zersetzt” and the UV-Absorptionsmaximum [4] was 323 nm. The “anti-inflammatorische Wirkung” value [5] was “anti-inflammatorische Wirkung”.
